{"source": "patent US12678546B2", "about": "“Systems, methods, and apparatus for modeling and optimizing dialysis effects” (INNCELEREX, priority 2022, dated 2026)", "key": {"[1]": {"experiment": "Ex-vivo simulated dialysis treatment (CRRT mimic) of bovine plasma containing creatinine", "assay_type": "in vitro ADME", "settings": "for Reduction in creatinine on the arterial side / Reduction in creatinine on the venous side / Total amount of creatinine in effluent, of total amount in the reservoir at time zero: at 60 minutes; for Change in creatinine concentration, venous vs. arterial side, mean over timepoints: the values are: percent change venous vs arterial; for C0 at 0 min: bovine, prior to starting ex-vivo dialysis, read-out: Starting creatinine concentration at time zero", "from_the_text": "FIG. 1 illustrates an exemplary system 100 and configuration for a simulated treatment on a drug or analyte of interest. The exemplary system 100 of FIG. 1 was designed and built to mimic Continuous Renal Replacement Therapy (CRRT). CRRT is a method of slower, continuous dialysis to allow solute and fluid homeostasis. CRRT […] intermittent hemodialysis and peritoneal dialysis. It is typically performed through pump-driven venovenous extracorporeal circuits and acts as renal support through blood purification to allow solute and fluid homeostasis. CRRT is often chosen for renal replacement in hemodynamically unstable patients, and it is often employed in the intensive care unit. With a slower rate of fluid removal, CRRT theoretically causes less hypotension than other dialysis techniques. Another advantage of CRRT for these patients is that they often require a large volume of fluid administration, including medications and parenteral nutrition, and CRRT can prevent an overloaded state.\nThe blood or plasma is introduced to the blood side 156 of the filter. Dialysate fluid that has no drug (nor analyte of interest) is pumped through the other side 157 of the filter. This process creates a movement of the analyte of interest from the blood side 156 of the filter to the dialysate side 157 and ultimately excretion into an effluent container 107 (simulating drug removal). The pumps 110, 111, 112, 113 are set at typical clinical levels (e.g., 300-500 mL/min) for pump speed and are optimized based on performance criteria (and by trial and error) for the specific treatment simulation.\nIn some embodiments, the system 100 is run for 1 hour, and during this time samples (500 μL each) are taken at the respective sample points 103, 104, 105, 106 at time 0, 10, 20, 30, 40 and 60 minutes after starting the pumps 110, 111, 112, 113. These samples are assayed for the analyte of interest. These are the numerical treatment simulation results that are used in silico (described below) to scale and to predict human dialysis situations (i.e., create a virtual patient) and also to extend the predictions to many other dialysis settings (e.g., different filter types, flow rates, type of fluids pumped in, etc.) that are used in different clinical conditions.\nAs shown in an exemplary algorithm and schematic of the invention in FIGS. 3A-3C, the treatment simulation and in-silico modeling, simulations, and extrapolation are used to determine the effects of dialysis on a drug or analyte of interest. In blocks A and B of FIG. 3A, bovine or human plasma or blood is spiked with a drug or an exogenous analyte existing in plasma or blood. In block C, pumps, tubing, flow rates, filters, temperature, pH, dialysis or replacement solutions and apparatus are configured to mimic a type of CRRT (Continuous Renal Replacement Therapy) or IHD (Intermittent Hemodialysis). In block D, the system is run for approximately 1-2 hours. In block E, multiple samples from different ports 103, 104, 105, 106 (arterial, venous, effluent, and blood/plasma reservoir) are taken during the treatment simulation and the sampling information is recorded. In block F, the samples for the drug/analyte collected are assayed. In block G, the amount of the drug that is removed by the treatment simulation is determined, and rate and ratio parameters for the drug removal from plasma or blood are calculated.\nOne analyte was creatinine used as control, and the other was drug X (a drug under development). The Cybernetic Dialysis™ system 200 measures how much of drug X and how much creatinine is removed by dialysis and (referring back to FIG. 1) includes water bath 101 with shaking tray with thermal control set at 37° C. […]"}, "[2]": {"experiment": "Ex-vivo simulated dialysis treatment (CRRT mimic) of bovine plasma containing creatinine", "assay_type": "in vitro ADME", "settings": "HF1400 membrane; 5 min after start of ex-vivo dialysis"}, "[3]": {"settings": "AN69 M150 membrane, 10 min after start of ex-vivo dialysis"}, "[4]": {"settings": "AN69 M150 membrane, 20 min after start of ex-vivo dialysis"}, "[5]": {"settings": "AN69 M150 membrane, 30 min after start of ex-vivo dialysis"}, "[6]": {"settings": "AN69 M150 membrane, 40 min after start of ex-vivo dialysis"}, "[7]": {"settings": "AN69 M150 membrane, 60 min after start of ex-vivo dialysis"}, "[8]": {"settings": "HF1400 membrane, 10 min after start of ex-vivo dialysis"}, "[9]": {"settings": "HF1400 membrane, 20 min after start of ex-vivo dialysis"}, "[10]": {"settings": "HF1400 membrane, 30 min after start of ex-vivo dialysis"}, "[11]": {"settings": "HF1400 membrane, 40 min after start of ex-vivo dialysis"}, "[12]": {"settings": "HF1400 membrane, 60 min after start of ex-vivo dialysis"}}, "note": "Like-named read-outs stand apart in the source and are kept apart here.", "data": [{"smiles": "CN1CC(=O)NC1=N", "note": "[creatinine]", "values": [{"measurement": "Creatinine concentration, Arterial", "setting": "[1]; [3]", "value": 7.088, "unit": "µg/mL"}, {"measurement": "Creatinine concentration, Venous", "setting": "[1]; [3]", "value": 5.545, "unit": "µg/mL"}, {"measurement": "Creatinine concentration, Arterial", "setting": "[1]; [4]", "value": 6.53, "unit": "µg/mL"}, {"measurement": "Creatinine concentration, Venous", "setting": "[1]; [4]", "value": 5.216, "unit": "µg/mL"}, {"measurement": "Creatinine concentration, Arterial", "setting": "[1]; [5]", "value": 5.191, "unit": "µg/mL"}, {"measurement": "Creatinine concentration, Venous", "setting": "[1]; [5]", "value": 4.353, "unit": "µg/mL"}, {"measurement": "Creatinine concentration, Arterial", "setting": "[1]; [6]", "value": 4.145, "unit": "µg/mL"}, {"measurement": "Creatinine concentration, Venous", "setting": "[1]; [6]", "value": 3.706, "unit": "µg/mL"}, {"measurement": "Creatinine concentration, Arterial", "setting": "[1]; [7]", "value": 3.444, "unit": "µg/mL"}, {"measurement": "Creatinine concentration, Venous", "setting": "[1]; [7]", "value": 2.909, "unit": "µg/mL"}, {"measurement": "Reduction in creatinine on the arterial side", "setting": "[1]; AN69 M150 membrane", "value": 60, "unit": "%"}, {"measurement": "Creatinine concentration, Arterial", "setting": "[1]; AN69 M150 membrane, time point 0 min, bovine plasma", "value": 8.581, "unit": "µg/mL"}, {"measurement": "Creatinine concentration, Arterial", "setting": "[1]; [8]", "value": 8.306, "unit": "µg/mL"}, {"measurement": "Creatinine concentration, Venous", "setting": "[1]; [8]", "value": 6.355, "unit": "µg/mL"}, {"measurement": "Creatinine concentration, Arterial", "setting": "[1]; [9]", "value": 6.174, "unit": "µg/mL"}, {"measurement": "Creatinine concentration, Venous", "setting": "[1]; [9]", "value": 5.052, "unit": "µg/mL"}, {"measurement": "Creatinine concentration, Arterial", "setting": "[1]; [10]", "value": 5.857, "unit": "µg/mL"}, {"measurement": "Creatinine concentration, Venous", "setting": "[1]; [10]", "value": 4.214, "unit": "µg/mL"}, {"measurement": "Creatinine concentration, Arterial", "setting": "[1]; [11]", "value": 5.261, "unit": "µg/mL"}, {"measurement": "Creatinine concentration, Venous", "setting": "[1]; [11]", "value": 3.782, "unit": "µg/mL"}, {"measurement": "Creatinine concentration, Arterial", "setting": "[1]; [12]", "value": 3.82, "unit": "µg/mL"}, {"measurement": "Creatinine concentration, Venous", "setting": "[1]; [12]", "value": 3.18, "unit": "µg/mL"}, {"measurement": "Change in creatinine concentration, venous vs. arterial side, mean over timepoints", "setting": "[1]; HF1400 membrane, FIG. 7", "value": -25.4, "unit": "%"}, {"measurement": "Reduction in creatinine on the arterial side", "setting": "[1]; HF1400 membrane", "value": 56, "unit": "%"}, {"measurement": "Reduction in creatinine on the venous side", "setting": "[1]; HF1400 membrane", "value": 63, "unit": "%"}, {"measurement": "Total amount of creatinine in effluent, of total amount in the reservoir at time zero", "setting": "[1]; HF1400 membrane", "value": 66.3, "unit": "%"}, {"measurement": "Creatinine concentration, Arterial", "setting": "[1]; HF1400 membrane, time point 0 min, bovine plasma", "value": 8.581, "unit": "µg/mL"}, {"measurement": "Change in creatinine concentration, venous vs. arterial side, mean over timepoints", "setting": "[1]; M150 AN69 membrane, FIG. 5", "value": -16.8, "unit": "%"}, {"measurement": "Reduction in creatinine on the venous side", "setting": "[1]; M150 AN69 membrane", "value": 66, "unit": "%"}, {"measurement": "Total amount of creatinine in effluent, of total amount in the reservoir at time zero", "setting": "[1]; M150 AN69 membrane", "value": 68.0, "unit": "%"}, {"measurement": "Total amount of creatinine (at time zero) remaining in the membrane cartridge and associated tubing", "setting": "[1]; both membrane types (M150 AN69 and HF1400)", "value": "about 5%"}, {"measurement": "C0 at 0 min", "setting": "[1]; AN69 M150 membrane", "value": 8370, "unit": "ng/mL"}, {"measurement": "C0 at 0 min", "setting": "[1]; HF1400 membrane", "value": 8580, "unit": "ng/mL"}, {"measurement": "Creatinine concentration, Arterial", "setting": "[2]", "value": 8.675, "unit": "µg/mL"}, {"measurement": "Creatinine concentration, Venous", "setting": "[2]", "value": 5.41, "unit": "µg/mL"}]}]}
